Source: patent publication US9763939B2, “Compositions and methods for treating mitochondrial diseases” (BIOVISTA, INC., priority 2012, dated 2017)

Experiments:
in vivo [1] = conditions: rat
[2] = tested on: YG8R FRDA mouse fibroblasts; test: FAC/BSO oxidative stress insult, cell viability (Presto Blue), YG8R fibroblasts; assay type: cell-based; conditions: FAC and 1 mM BSO 48 h
Protocol: (§1) EXAMPLE. Primary fibroblast and neuronal stem cell (NSC) cultures from the YG8R FRDA mouse model. The cell cultures are used as a rapid means to test the effectiveness of potential therapies before proceeding to longer-term FRDA mouse model investigations. A parallel assay using YG22R NSCs may be used.
(§2) YG8R fibroblasts and NSCs are treated with increasing concentrations of test compound, and a vehicle-only negative control. Optionally, YG8R fibroblasts and NSCs are treated with a positive control compound, such as 1 μM idebenone. Two hours after the initial treatment, cells are lesioned with […] FAC and 1 mM BSO for 48 hours. Cell viability is then determined using Presto Blue Cell Viability Reagent (Life Technologies) for 24 hours and subsequent colorimetric spectrophotometry. […] Similarly, 1.8 μM tetrindole restored the vehicle-treated FAC/BSO cell viability value of 26% to a value of 53% (p<0.001), relative to the vehicle treated non-insulted cell value as 100%.

mice = conditions: mouse, in vivo, po
[3] = tested on: human primary fibroblasts from patients suffering from Friedreich's ataxia; test: cells
Protocol: EXAMPLE. […] Briefly, primary human fibroblasts from patients suffering from Friedreich's ataxia and LHON are lesioned with 100 μM BSO (LHON fibroblasts) or 250 μM BSO (FRDA fibroblasts) respectively, for 48 hours. Apoptosis, toxicity and viability rate of cells are determined using the ApoTox-Glo-Kit (Promega): the reagent for assessing viability and toxicity is applied 1:5 into treatment medium and incubated for 30 min at 37° C. Next, fluorescence is measured at the following wavelength sets: 400EX/505EM (viability) and 485EX/520EM (toxicity). In case of apoptosis measurement the caspase reagent was added 1:2 and incubated at RT for 30 min, the caspase activity (apoptosis) was measured as luminescence
EXAMPLE. Evaluation of Tetracyclic Pyrazinoindoles, and Pharmaceutically Acceptable Salts Thereof. One or more tetracyclic pyrazinoindoles are applied 2 and 24 hours before BSO treatment and are present throughout the assay. An optional reference compound, such as idebenone may be included for comparison. BSO treated cells without any treatment (BSO group) as well as cells neither treated with BSO nor with any treatment (Vehicle Control (VC) group) serve as controls. Cells are assessed for apoptosis, toxicity and viability immediately after BSO lesion by means of the ApoTox-Glo-assay Kit (Promega). Three independent experiments in four technical replicates are performed for all groups as depicted in Table 1 (different tetracyclic pyrazinoindoles are labeled as Test Items (T.I.1-T.I.2) and an optional positive control Reference Item 1 (R.I.1)):
BSO generally reduces a cell's protection against oxidative damage. Cells harvested from FRDA and LHON patients generate higher levels of ROS than normal cells. Apoptosis, toxicity and viability rate of cells are determined using the ApoTox-Glo-Kit (Promega): the reagent for assessing viability and toxicity is applied 1:5 into treatment medium and incubated for 30 min at 37° C. Next, fluorescence is measured at the following wavelength sets: 400EX/505EM (viability) and 485EX/520EM (toxicity). In case of apoptosis measurement the caspase reagent is added 1:2 and incubated at RT for 30 min, the caspase activity (apoptosis) was measured as luminescence
Descriptive statistical analysis was performed. Data are presented as mean±standard error of mean (SEM) in percent of vehicle control, MPP+ lesion and BSO lesion, respectively. Differences between compound-treated groups and controls (vehicle, BSO) are evaluated by means of One-Way ANOVA.
EXAMPLE. […] One vial is thawed and administered 2 and 24 hours before BSO treatment, at concentrations 0.6 μM, 1.8 μM, 5.5 μM and 16 μM. Apoptosis, toxicity and viability rate of cells are determined using the ApoTox-Glo-Kit (Promega). Human primary fibroblasts from patients suffering from Friedreich's ataxia are used. Three independent experiments in four technical replicates are performed for all groups. […] Statistical significance is indicated by NS=not significant p>0.1, *=p<0.05, **=p<0.01, ***=p<0.001 as determined by One-Way ANOVA. Data are shown as group mean+/−SEM.
EXAMPLE. Tetrindole is diluted in DMSO. One vial is thawed and administered 2 and 24 hours before BSO treatment, at concentrations 0.2 μM, 0.6 μM, 1.8 μM and 5.5 μM. Apoptosis, toxicity and viability rate of cells are determined using the ApoTox-Glo-Kit (Promega). Human primary fibroblasts from patients suffering from Friedreich's ataxia are used. Three independent experiments in four technical replicates are performed for all groups. […] Statistical significance is indicated by NS=not significant p>0.1, *=p<0.05, **=p<0.01, ***=p<0.001 as determined by One-Way ANOVA. Data are shown as group mean+/−SEM.

in vivo [4] = conditions: mouse
[5] = Pharmacokinetics in the dog; assay type: in vivo
[6] = tested on: YG8R FRDA mouse neuronal stem cells (NSCs); test: FAC/BSO oxidative stress insult, cell viability (Presto Blue), YG8R NSCs; assay type: cell-based
Protocol: as §1, §2
Similarly, 1.8 μM tetrindole restored the vehicle-treated FAC/BSO cell viability value of 19% to a value of 40% (p<0.001), relative to the vehicle treated non-insulted cell value as 100%.

[7] = tested on: reuptake of 5-hydroxytryptamine; test: Effect on reuptake of 5-hydroxytryptamine
[8] = tested on: C57BL/6 mice with MOG-induced EAE; test: MOG-induced Experimental Allergic Encephalomyelitis (MOG-EAE) mouse model, spinal cord histology; assay type: in vivo; conditions: spinal cord H&E histology day 35, pirlindole 30 mg/kg, dexamethasone positive control, dose not given
Protocol: EXAMPLE. Evaluation of anti-inflammatory and direct protection mode of action. Compounds described herein are evaluated in a standard MOG-induced Experimental Allergic Encephalomyelitis (MOG-EAE) mouse model of neurodegeneration to determine whether the compounds protect neurons directly, or via an indirect anti-inflammatory mode of action. EAE is induced in C57BL/6 mice by the single subcutaneous injection of MOG emulsified in Complete Freund's Adjuvant (CFA) on study days 0 and 6, followed by intraperitoneal supplemental immunostimulation with Pertussis Toxin (PT) carried out once at the time of EAE induction and once again 48 hours later. Test animals are observed for 35 days. Histology samples are harvested from the spinal cords of the animals on day 35 and are stained with Hematoxylin & Eosin (H&E). Analysis of the samples comprises two parameters: a) The Severity Score which refers mainly to infiltration by inflammatory cells and b) White Matter Damage (WMD), which refers mainly to axonal degeneration.

Cc1ccc2c(c1)c1c3n2CCNC3CCC1 (stereo not drawn) [pirlindole, 2,3,3a,4,5,6-hexahydro-8-methyl-1H-pyrazino[3,2,1-j,k]carbazole]
LD50 (in vivo [1]; iv): ~80 mg/kg | LD50 (in vivo [1]; po): 2000 to 5000 mg/kg | protection against the oxidative stress insult [2]: significantly protect | viability at 16 µM ([2]; Mus musculus, Fibroblast, 16 μM, vehicle-treated FAC/BSO value 26%, relative to vehicle treated non-insulted cells as 100%, p<0.001): 67% | maximal non-lethal dose (mice): approximately 300 mg/kg | statistically significant overall cytotoxicity over BSO control [3]: not observed at any dose | apoptosis (caspase activity) ([3]; 16 μM, only after the short incubation (2 h before lesion)): reduced apoptosis | viability at 16 µM ([3]; Homo sapiens, Fibroblast, 48 h, read-out: protective effect in relative cell viability): 161% | statistically significant improvement in apoptosis compared to the BSO group ([3]; all tested doses): not observed at any dose | LD50 (in vivo [4]; iv): 70 to 80 mg/kg | LD50 (in vivo [4]; po): 400 to 1000 mg/kg | first phase of elimination ([5]; dog, approximately): approximately 1.5 h | second phase of elimination ([5]; dog, approximately): ~11 h | third phase of elimination ([5]; dog, approximately): ~185 h | Tmax ([5]; in vivo, dog, oral, approximately): 1 to 2 h | blood levels versus dose ([5]; male and female dogs, repeated administration of three dose levels p.o. for one year): strictly dose-dependent | protection against the oxidative stress insult [6]: significantly protect | viability at 5.5 µM ([6]; Mus musculus, 5.5 μM, vehicle-treated FAC/BSO value 19%, relative to vehicle treated non-insulted cells as 100%, p<0.001): 41% | effect on the reuptake of 5-hydroxytryptamine [7]: inhibitory effect | Severity Score (infiltration by inflammatory cells) ([8]; vehicle 2.85±0.66): 2.7±1.29 | White Matter Damage (WMD) percentage (axonal degeneration) ([8]; vehicle 74.2±26.1): 41±44.1 percentage
